Read-outs that look alike come from different tables or passages of the source. Each block holds one compound with its values, some of them ahead of it.
Experiments:
[1] = system: Ramos; experiment: Anti-proliferative activity, MTT reduction method; format: cell-based; conditions: Homo sapiens, mean of at least two experiments
[2] = system: RPMI-8226; experiment: Anti-proliferative activity, MTT reduction method; format: cell-based; conditions: Homo sapiens, mean of at least two experiments
[3] = biological target: PI3Kα (Homo sapiens, UniProt P42336); experiment: PI3K isoform selectivity, p110α; format: biochemical; conditions: for IC50: mean of at least two experiments
[4] = system: SU-DHL-6; experiment: Anti-proliferative activity, CCK-8 method; format: cell-based; conditions: Homo sapiens, mean of at least two experiments
[5] = biological target: PI3Kγ (Homo sapiens, UniProt P48736); experiment: PI3K isoform selectivity, p110γ; format: biochemical; conditions: for IC50: mean of at least two experiments
[6] = system: Raji; experiment: Anti-proliferative activity, MTT reduction method; format: cell-based; conditions: Homo sapiens, mean of at least two experiments
[7] = biological target: T1, PI3Kδ (Homo sapiens, UniProt O00329); experiment: PI3Kδ inhibitory activity; format: biochemical; conditions: mean of at least two experiments; for inhibition at 0.1 µM: at the concentration of 100 nM
[8] = biological target: PI3Kβ (Homo sapiens, UniProt P42338); experiment: PI3K isoform selectivity, p110β; format: biochemical; conditions: for IC50: mean of at least two experiments
[9] = biological target: T1, PI3Kδ; conditions: cited from earlier work
[10] = Table 3 isoform selectivity, read-out: p110δ IC50

Sequence of PI3Kα (P42336 whole entry, species assumed, canonical isoform): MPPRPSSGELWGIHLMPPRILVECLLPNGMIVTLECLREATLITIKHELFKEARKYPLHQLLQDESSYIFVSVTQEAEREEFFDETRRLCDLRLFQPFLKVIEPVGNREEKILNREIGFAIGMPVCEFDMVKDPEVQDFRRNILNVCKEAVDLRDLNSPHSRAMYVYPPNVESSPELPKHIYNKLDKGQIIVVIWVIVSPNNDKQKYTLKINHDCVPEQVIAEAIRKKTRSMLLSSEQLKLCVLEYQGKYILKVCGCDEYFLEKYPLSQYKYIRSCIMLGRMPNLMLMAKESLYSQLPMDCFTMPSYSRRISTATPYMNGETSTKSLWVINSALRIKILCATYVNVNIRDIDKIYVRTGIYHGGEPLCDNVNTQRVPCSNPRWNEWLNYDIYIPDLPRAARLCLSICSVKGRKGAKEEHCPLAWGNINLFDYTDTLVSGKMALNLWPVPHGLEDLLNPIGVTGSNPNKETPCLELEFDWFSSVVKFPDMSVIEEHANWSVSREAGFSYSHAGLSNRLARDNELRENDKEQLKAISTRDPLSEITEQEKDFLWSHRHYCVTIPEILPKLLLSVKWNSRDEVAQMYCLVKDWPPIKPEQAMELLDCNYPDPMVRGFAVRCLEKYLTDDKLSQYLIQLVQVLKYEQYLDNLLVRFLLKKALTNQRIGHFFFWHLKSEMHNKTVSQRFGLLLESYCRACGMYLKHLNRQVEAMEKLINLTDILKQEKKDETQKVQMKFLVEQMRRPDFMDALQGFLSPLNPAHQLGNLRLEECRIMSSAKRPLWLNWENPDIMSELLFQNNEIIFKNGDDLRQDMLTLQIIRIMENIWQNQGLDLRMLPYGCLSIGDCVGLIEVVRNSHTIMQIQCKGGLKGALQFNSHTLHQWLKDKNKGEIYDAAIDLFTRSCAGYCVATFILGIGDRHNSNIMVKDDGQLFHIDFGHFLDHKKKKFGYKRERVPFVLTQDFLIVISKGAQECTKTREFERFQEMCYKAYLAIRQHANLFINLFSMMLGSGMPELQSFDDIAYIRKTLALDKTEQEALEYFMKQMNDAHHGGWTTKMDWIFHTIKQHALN
Sequence of PI3Kα (P27986 whole entry partner, species assumed, canonical isoform): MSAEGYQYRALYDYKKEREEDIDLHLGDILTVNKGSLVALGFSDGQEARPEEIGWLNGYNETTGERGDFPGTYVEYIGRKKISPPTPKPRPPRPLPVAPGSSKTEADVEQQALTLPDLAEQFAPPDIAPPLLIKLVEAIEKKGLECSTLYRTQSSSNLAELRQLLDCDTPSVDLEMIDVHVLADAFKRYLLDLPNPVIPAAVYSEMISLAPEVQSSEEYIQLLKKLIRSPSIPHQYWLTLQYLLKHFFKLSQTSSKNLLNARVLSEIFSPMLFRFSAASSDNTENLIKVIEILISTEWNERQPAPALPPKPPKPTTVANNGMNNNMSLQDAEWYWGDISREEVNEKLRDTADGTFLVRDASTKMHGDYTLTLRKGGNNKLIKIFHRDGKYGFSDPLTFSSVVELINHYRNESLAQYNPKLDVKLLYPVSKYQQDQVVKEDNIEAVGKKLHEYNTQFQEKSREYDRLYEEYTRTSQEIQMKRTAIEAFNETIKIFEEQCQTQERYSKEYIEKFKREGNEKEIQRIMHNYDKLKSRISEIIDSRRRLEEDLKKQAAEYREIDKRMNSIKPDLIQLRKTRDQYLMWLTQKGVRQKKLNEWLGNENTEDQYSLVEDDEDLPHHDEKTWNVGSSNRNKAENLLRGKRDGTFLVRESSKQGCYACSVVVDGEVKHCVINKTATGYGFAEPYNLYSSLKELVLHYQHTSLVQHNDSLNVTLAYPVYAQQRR
T1 sequence (O00329 whole entry, canonical isoform): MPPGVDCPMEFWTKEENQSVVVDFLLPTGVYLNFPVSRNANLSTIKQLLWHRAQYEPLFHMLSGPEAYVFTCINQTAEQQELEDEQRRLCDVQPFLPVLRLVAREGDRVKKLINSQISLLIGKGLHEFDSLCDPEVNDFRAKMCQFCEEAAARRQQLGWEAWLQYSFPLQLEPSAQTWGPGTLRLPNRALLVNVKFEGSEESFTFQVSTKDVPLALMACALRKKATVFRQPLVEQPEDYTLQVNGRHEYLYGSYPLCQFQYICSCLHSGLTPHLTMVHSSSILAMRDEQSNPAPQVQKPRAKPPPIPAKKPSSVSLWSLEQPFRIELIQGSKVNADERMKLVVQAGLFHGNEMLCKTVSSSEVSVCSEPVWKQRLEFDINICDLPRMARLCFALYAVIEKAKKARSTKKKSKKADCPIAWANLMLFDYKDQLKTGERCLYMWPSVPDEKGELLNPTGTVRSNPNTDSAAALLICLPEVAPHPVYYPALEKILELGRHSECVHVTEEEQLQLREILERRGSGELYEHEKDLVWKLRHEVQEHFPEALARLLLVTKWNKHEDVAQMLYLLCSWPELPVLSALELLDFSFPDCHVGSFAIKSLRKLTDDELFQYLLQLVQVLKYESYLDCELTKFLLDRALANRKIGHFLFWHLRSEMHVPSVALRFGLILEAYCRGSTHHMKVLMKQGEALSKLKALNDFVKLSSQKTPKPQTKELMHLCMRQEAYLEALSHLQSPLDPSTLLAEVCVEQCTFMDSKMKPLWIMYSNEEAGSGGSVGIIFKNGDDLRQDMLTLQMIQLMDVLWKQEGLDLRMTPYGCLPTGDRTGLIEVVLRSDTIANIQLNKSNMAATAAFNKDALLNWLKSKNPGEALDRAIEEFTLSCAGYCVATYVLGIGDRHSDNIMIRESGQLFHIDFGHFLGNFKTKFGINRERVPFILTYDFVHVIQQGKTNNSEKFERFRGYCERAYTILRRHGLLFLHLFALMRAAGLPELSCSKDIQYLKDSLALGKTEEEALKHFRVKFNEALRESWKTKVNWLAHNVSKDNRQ
T1 sequence (P27986 whole entry partner, canonical isoform): as the sequence (P27986 whole entry partner, species assumed, canonical isoform) above
Sequence of PI3Kβ (P42338 whole entry, species assumed, canonical isoform): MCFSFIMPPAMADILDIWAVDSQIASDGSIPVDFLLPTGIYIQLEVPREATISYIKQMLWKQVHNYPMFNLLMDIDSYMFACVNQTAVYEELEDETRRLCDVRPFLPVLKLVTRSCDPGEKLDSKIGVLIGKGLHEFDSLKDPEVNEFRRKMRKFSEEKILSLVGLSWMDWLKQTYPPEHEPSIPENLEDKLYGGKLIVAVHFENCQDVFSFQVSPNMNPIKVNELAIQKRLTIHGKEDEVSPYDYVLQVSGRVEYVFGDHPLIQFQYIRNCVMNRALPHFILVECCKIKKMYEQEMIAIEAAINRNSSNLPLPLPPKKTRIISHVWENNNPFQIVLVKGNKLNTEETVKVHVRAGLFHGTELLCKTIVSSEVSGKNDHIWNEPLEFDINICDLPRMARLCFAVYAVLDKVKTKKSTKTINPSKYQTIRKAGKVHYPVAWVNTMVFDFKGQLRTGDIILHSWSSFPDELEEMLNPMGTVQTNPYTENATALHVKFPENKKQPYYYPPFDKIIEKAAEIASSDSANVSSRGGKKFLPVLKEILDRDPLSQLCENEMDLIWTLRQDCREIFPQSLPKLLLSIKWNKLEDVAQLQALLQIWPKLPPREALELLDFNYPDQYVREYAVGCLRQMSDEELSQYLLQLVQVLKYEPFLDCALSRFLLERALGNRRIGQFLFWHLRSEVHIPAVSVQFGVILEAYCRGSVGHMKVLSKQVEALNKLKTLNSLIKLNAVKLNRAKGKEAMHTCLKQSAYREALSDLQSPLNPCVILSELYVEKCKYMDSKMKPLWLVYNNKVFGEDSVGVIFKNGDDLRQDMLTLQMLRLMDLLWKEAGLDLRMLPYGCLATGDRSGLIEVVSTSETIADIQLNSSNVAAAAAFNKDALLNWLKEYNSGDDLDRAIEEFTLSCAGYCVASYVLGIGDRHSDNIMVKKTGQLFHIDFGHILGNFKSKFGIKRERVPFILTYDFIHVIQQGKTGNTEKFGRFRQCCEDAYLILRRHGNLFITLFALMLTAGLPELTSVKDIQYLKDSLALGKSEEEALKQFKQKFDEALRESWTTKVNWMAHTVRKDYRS
Sequence of PI3Kβ (P27986 whole entry partner, species assumed, canonical isoform): as the sequence (P27986 whole entry partner, species assumed, canonical isoform) above
Sequence of PI3Kγ (P48736 whole entry, species assumed, canonical isoform): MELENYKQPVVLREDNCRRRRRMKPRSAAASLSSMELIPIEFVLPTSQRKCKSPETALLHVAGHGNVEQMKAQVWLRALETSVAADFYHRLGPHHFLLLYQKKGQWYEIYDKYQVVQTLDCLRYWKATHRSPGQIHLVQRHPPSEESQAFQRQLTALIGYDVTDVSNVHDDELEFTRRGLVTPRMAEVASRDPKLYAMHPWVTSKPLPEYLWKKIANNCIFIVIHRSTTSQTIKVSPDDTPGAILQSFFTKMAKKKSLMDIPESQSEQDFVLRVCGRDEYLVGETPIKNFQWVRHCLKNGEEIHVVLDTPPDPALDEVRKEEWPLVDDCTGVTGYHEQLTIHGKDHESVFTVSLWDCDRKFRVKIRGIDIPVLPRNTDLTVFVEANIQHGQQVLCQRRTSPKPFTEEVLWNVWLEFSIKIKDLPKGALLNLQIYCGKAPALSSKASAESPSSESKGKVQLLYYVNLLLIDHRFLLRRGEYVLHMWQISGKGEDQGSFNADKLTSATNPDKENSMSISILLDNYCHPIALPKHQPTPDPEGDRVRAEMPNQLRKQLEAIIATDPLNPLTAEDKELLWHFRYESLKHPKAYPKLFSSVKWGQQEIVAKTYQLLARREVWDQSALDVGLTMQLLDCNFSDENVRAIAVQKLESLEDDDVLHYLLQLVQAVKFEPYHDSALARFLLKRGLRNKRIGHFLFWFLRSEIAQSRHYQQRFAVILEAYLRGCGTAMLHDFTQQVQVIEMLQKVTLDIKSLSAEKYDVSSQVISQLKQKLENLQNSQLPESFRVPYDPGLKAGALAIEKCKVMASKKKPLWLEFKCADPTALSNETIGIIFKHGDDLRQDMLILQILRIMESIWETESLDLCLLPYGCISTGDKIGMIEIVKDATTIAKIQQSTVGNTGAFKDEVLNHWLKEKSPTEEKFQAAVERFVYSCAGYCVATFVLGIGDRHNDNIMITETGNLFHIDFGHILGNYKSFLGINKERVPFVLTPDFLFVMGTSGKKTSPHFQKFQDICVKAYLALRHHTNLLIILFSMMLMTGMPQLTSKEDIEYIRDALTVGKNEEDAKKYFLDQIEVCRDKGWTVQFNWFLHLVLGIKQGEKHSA

SMILES: COc1ccc(-c2ccc3ncnc(O[C@H]4CCN(C(=O)C5CCOCC5)C4)c3c2)cn1 [Compound 12d]
- IC50 [1]: 1340 nM
- IC50 [2]: 440 nM
- PI3Kδ selectivity over PI3Kα [3]: 11 fold
- IC50 [3]: 50.4 nM
- IC50 [4]: 3230 nM
- PI3Kδ selectivity over PI3Kγ [5]: 103 fold
- IC50 [5]: 468 nM
- IC50 [6]: 9810 nM
- IC50 [7, 10]: 4.9 nM
- inhibition at 0.1 µM [7]: 98%
- IC50 ([7]; read-out: PI3Kδ IC50): 4.9 nM
- PI3Kδ selectivity over PI3Kβ [8]: 131 fold
- IC50 [8]: 592 nM

SMILES: CC[C@H](Nc1ncnc2[nH]cnc12)c1nc2cccc(F)c2c(=O)n1-c1ccccc1 [Compound 1, idelalisib, reference compound]
- IC50 [1]: > 10000 nM
- IC50 [2]: 5490 nM
- IC50 [4]: 650 nM
- IC50 [6]: 9950 nM
- inhibition at 0.1 µM [7]: 96%

SMILES: COc1ccc(-c2ccc3ncnc(O[C@H]4CCN(C(=O)C(C)(C)C)C4)c3c2)cn1 [Compound 12e]
- inhibition at 0.1 µM [7]: 53%

SMILES: C[C@H](Nc1nc(N)nc(N)c1C#N)c1nc2cccc(F)c2c(=O)n1-c1cc(F)cc(F)c1 [Compound 3]
- IC50 ([9]; idelalisib-derived analogues): 2.2 nM

SMILES: COc1ccc(-c2ccc3ncnc(O[C@H]4CCN(C(=O)C5CCC5)C4)c3c2)cn1 [Compound 12c]
- inhibition at 0.1 µM [7]: 96%
- IC50 ([7]; read-out: PI3Kδ IC50): 6.1 nM

SMILES: COc1ccc(-c2ccc3ncnc(O[C@H]4CCN(C(=O)OC(C)(C)C)C4)c3c2)cn1 [Compound 12a]
- inhibition at 0.1 µM [7]: 79%

SMILES: O=C(CCCCCCC(=O)Nc1ccccc1)NO [SAHA, vorinostat, reference compound]
- IC50 [2]: 660 nM

SMILES: COc1ncc(-c2ccc3ncnc(Nc4cccc(C(=O)N5CCOCC5)c4)c3c2)cc1C#N [Compound 8]
- IC50 ([9]; 4-anilinequinazoline): 9.3 nM

SMILES: COc1ccc(-c2ccc3ncnc(O[C@H]4CCN(C(=O)C5CC5)C4)c3c2)cn1 [Compound 12b]
- inhibition at 0.1 µM [7]: 90%
- IC50 ([7]; read-out: PI3Kδ IC50): 9.3 nM

The next lines start with the values.

- inhibition at 0.1 µM [7]: 88%
- IC50 ([7]; read-out: PI3Kδ IC50): 5.2 nM
SMILES: COc1ccc(-c2ccc3ncnc(N[C@H]4CCCN(C(=O)C5CCOCC5)C4)c3c2)cn1 [Compound 14e]

- inhibition at 0.1 µM [7]: 48%
SMILES: COc1ccc(-c2ccc3ncnc(NC4CCN(C(=O)C5CCOCC5)CC4)c3c2)cn1 [Compound 16c]

- inhibition at 0.1 µM [7]: 72%
SMILES: COc1ccc(-c2ccc3ncnc(NC4CCN(C(=O)OC(C)(C)C)CC4)c3c2)cn1 [Compound 16a]

- inhibition at 0.1 µM [7]: 91%
- IC50 ([7]; read-out: PI3Kδ IC50): 8.7 nM
SMILES: COc1ccc(-c2ccc3ncnc(N[C@H]4CCCN(C(=O)C5CCCC5)C4)c3c2)cn1 [Compound 14d]

- inhibition at 0.1 µM [7]: 51%
SMILES: COc1ccc(-c2ccc3ncnc(N[C@H]4CCCN(C(=O)OC(C)(C)C)C4)c3c2)cn1 [Compound 14a]

- inhibition at 0.1 µM [7]: 54%
SMILES: COc1ccc(-c2ccc3ncnc(N[C@H]4CCCN(C(=O)C(C)(C)C)C4)c3c2)cn1 [Compound 14f]

- IC50 [1]: 1340 nM
- IC50 [2]: 8660 nM
- PI3Kδ selectivity over PI3Kα [3]: 12 fold
- IC50 [3]: 36.6 nM
- IC50 [4]: 1040 nM
- PI3Kδ selectivity over PI3Kγ [5]: 34 fold
- IC50 [5]: 104 nM
- IC50 [6]: 810 nM
- IC50 [7, 10]: 3 nM
- inhibition at 0.1 µM [7]: 94%
- IC50 ([7]; read-out: PI3Kδ IC50): 3 nM
- PI3Kδ selectivity over PI3Kβ [8]: 105 fold
- IC50 [8]: 317 nM
SMILES: COc1ccc(-c2ccc3ncnc(N[C@H]4CCCN(C(=O)C5CC5)C4)c3c2)cn1 [Compound 14b]

- PI3Kδ selectivity over PI3Kα [3]: 15 fold
- IC50 [3]: 58.9 nM
- IC50 [4]: 1490 nM
- PI3Kδ selectivity over PI3Kγ [5]: 31 fold
- IC50 [5]: 121 nM
- IC50 [7, 10]: 3.9 nM
- inhibition at 0.1 µM [7]: 91%
- IC50 ([7]; read-out: PI3Kδ IC50): 3.9 nM
- PI3Kδ selectivity over PI3Kβ [8]: 96 fold
- IC50 [8]: 376 nM
SMILES: COc1ccc(-c2ccc3ncnc(N[C@H]4CCCN(C(=O)C5CCC5)C4)c3c2)cn1 [Compound 14c]

- inhibition at 0.1 µM [7]: 70%
SMILES: COc1ccc(-c2ccc3ncnc(NC4CCN(C(=O)C5CC5)CC4)c3c2)cn1 [Compound 16b]

Reference: article PMC6009876, “Introduction of pyrrolidineoxy or piperidineamino group at the 4-position of quinazoline leading to novel quinazoline-based phosphoinositide 3-kinase delta (PI3Kδ) inhibitors” (Journal of Enzyme Inhibition and Medicinal Chemistry, 2018)
